ChEMBL document CHEMBL1151757, “Synthesis, radiosynthesis, and biological evaluation of fluorine-18-labeled 2beta-carbo(fluoroalkoxy)-3beta-(3'-((Z)-2-haloethenyl)phenyl)nortropanes: candidate radioligands for in vivo imaging of the serotonin transporter with positron emission tomography” (J Med Chem, 2008)

Assays:
[1] = tested on: Pons; experiment: Drug uptake in anesthetized cynomolgus monkey brain pons after 115 mins postinjection; assay type: ADME, organism-based, Macaca fascicularis; settings: in vivo
[2] = tested on: Pons; experiment: Drug uptake in anesthetized cynomolgus monkey brain pons after 85 mins postinjection; assay type: ADME, organism-based, Macaca fascicularis; settings: in vivo
[3] = tested on: Putamen; experiment: Drug uptake in anesthetized cynomolgus monkey brain putamen after 65 mins postinjection; assay type: ADME, organism-based, Macaca fascicularis; set-up: unit not given here; settings: in vivo
[4] = Drug uptake in anesthetized cynomolgus monkey brain cerebellum after 1.5 mins postinjection; assay type: ADME, organism-based, Macaca fascicularis; settings: in vivo, 0.025 h
[5] = Ratio of drug uptake in frontal lobe to cerebellum in anesthetized cynomolgus monkey after 75 mins postinjection; assay type: ADME, organism-based, Macaca fascicularis; settings: in vivo, 1.25 h
[6] = Drug uptake in anesthetized cynomolgus monkey brain frontal lobe after 215 mins postinjection; assay type: ADME, organism-based, Macaca fascicularis; settings: in vivo
[7] = tested on: Thalamus; experiment: Drug uptake in anesthetized cynomolgus monkey brain thalamus after 9.5 mins postinjection; assay type: ADME, organism-based, Macaca fascicularis; set-up: unit not given here; settings: in vivo
[8] = Ratio of drug uptake in pons to cerebellum in anesthetized cynomolgus monkey after 145 mins postinjection; assay type: ADME, organism-based, Macaca fascicularis; settings: in vivo
[9] = tested on: Thalamus; experiment: Drug uptake in anesthetized cynomolgus monkey brain thalamus after 145 mins postinjection; assay type: ADME, organism-based, Macaca fascicularis; set-up: unit not given here; settings: in vivo
[10] = Ratio of drug uptake in putamen to cerebellum in anesthetized cynomolgus monkey after 215 mins postinjection; assay type: ADME, organism-based, Macaca fascicularis; settings: in vivo
[11] = tested on: Pons; experiment: Drug uptake in anesthetized cynomolgus monkey brain pons after 135 mins postinjection; assay type: ADME, organism-based, Macaca fascicularis; settings: in vivo, 2.25 h
[12] = Drug uptake in anesthetized cynomolgus monkey brain frontal lobe after 35 mins postinjection; assay type: ADME, organism-based, Macaca fascicularis; settings: in vivo
[13] = Ratio of drug uptake in medulla to cerebellum in anesthetized cynomolgus monkey after 65 mins postinjection; assay type: ADME, organism-based, Macaca fascicularis; settings: in vivo
[14] = tested on: Pons; experiment: Drug uptake in anesthetized cynomolgus monkey brain pons after 165 mins postinjection; assay type: ADME, organism-based, Macaca fascicularis; settings: in vivo, 2.75 h
[15] = Ratio of drug uptake in midbrain to cerebellum in anesthetized cynomolgus monkey after 22.5 mins postinjection; assay type: ADME, organism-based, Macaca fascicularis; settings: in vivo, 0.375 h
[16] = Drug uptake in anesthetized cynomolgus monkey brain cerebellum after 95 mins postinjection; assay type: ADME, organism-based, Macaca fascicularis; settings: in vivo
[17] = tested on: Pons; experiment: Drug uptake in anesthetized cynomolgus monkey brain pons after 175 mins postinjection; assay type: ADME, organism-based, Macaca fascicularis; settings: in vivo
[18] = tested on: Caudate; experiment: Drug uptake in anesthetized cynomolgus monkey brain caudate after 155 mins postinjection; assay type: ADME, organism-based, Macaca fascicularis, Caudate nucleus; settings: in vivo
[19] = Drug uptake in anesthetized cynomolgus monkey brain occipital lobe after 125 mins postinjection; assay type: ADME, organism-based, Macaca fascicularis; settings: in vivo
[20] = tested on: Putamen; experiment: Drug uptake in anesthetized cynomolgus monkey brain putamen after 155 mins postinjection; assay type: ADME, organism-based, Macaca fascicularis; settings: in vivo
[21] = Ratio of drug uptake in putamen to cerebellum in anesthetized cynomolgus monkey after 75 mins postinjection; assay type: ADME, organism-based, Macaca fascicularis; settings: in vivo, 1.25 h
[22] = tested on: Pons; experiment: Drug uptake in anesthetized cynomolgus monkey brain pons after 9.5 mins postinjection; assay type: ADME, organism-based, Macaca fascicularis; settings: in vivo
[23] = tested on: Pons; experiment: Drug uptake in anesthetized cynomolgus monkey brain pons after 4.5 mins postinjection; assay type: ADME, organism-based, Macaca fascicularis; settings: in vivo, 0.075 h
[24] = tested on: Caudate; experiment: Drug uptake in anesthetized cynomolgus monkey brain caudate after 165 mins postinjection; assay type: ADME, organism-based, Macaca fascicularis, Caudate nucleus; settings: in vivo, 2.75 h
[25] = Ratio of drug uptake in pons to cerebellum in anesthetized cynomolgus monkey after 225 mins postinjection; assay type: ADME, organism-based, Macaca fascicularis; settings: in vivo, 3.75 h
[26] = tested on: Medulla; experiment: Drug uptake in anesthetized cynomolgus monkey brain medulla after 22.5 mins postinjection; assay type: ADME, organism-based, Macaca fascicularis; settings: in vivo, 0.375 h
[27] = tested on: Medulla; experiment: Drug uptake in anesthetized cynomolgus monkey brain medulla after 115 mins postinjection; assay type: ADME, organism-based, Macaca fascicularis; settings: in vivo
[28] = tested on: Putamen; experiment: Drug uptake in anesthetized cynomolgus monkey brain putamen after 75 mins postinjection; assay type: ADME, organism-based, Macaca fascicularis; set-up: unit not given here; settings: in vivo, 1.25 h
[29] = Drug uptake in anesthetized cynomolgus monkey brain occipital lobe after 215 mins postinjection; assay type: ADME, organism-based, Macaca fascicularis; settings: in vivo
[30] = Ratio of drug uptake in frontal lobe to cerebellum in anesthetized cynomolgus monkey after 95 mins postinjection; assay type: ADME, organism-based, Macaca fascicularis; settings: in vivo
[31] = tested on: Thalamus; experiment: Drug uptake in anesthetized cynomolgus monkey brain thalamus after 0.5 mins postinjection; assay type: ADME, organism-based, Macaca fascicularis; settings: in vivo
[32] = tested on: Medulla; experiment: Drug uptake in anesthetized cynomolgus monkey brain medulla after 6.5 mins postinjection; assay type: ADME, organism-based, Macaca fascicularis; settings: in vivo
[33] = tested on: Putamen; experiment: Drug uptake in anesthetized cynomolgus monkey brain putamen after 18.5 mins postinjection; assay type: ADME, organism-based, Macaca fascicularis; set-up: unit not given here; settings: in vivo
[34] = tested on: Caudate; experiment: Drug uptake in anesthetized cynomolgus monkey brain caudate after 3.5 mins postinjection; assay type: ADME, organism-based, Macaca fascicularis, Caudate nucleus; settings: in vivo
[35] = Drug uptake in anesthetized cynomolgus monkey brain cerebellum after 12.5 mins postinjection; assay type: ADME, organism-based, Macaca fascicularis; settings: in vivo
[36] = tested on: Thalamus; experiment: Drug uptake in anesthetized cynomolgus monkey brain thalamus after 18.5 mins postinjection; assay type: ADME, organism-based, Macaca fascicularis; set-up: unit not given here; settings: in vivo
[37] = tested on: Thalamus; experiment: Drug uptake in anesthetized cynomolgus monkey brain thalamus after 65 mins postinjection; assay type: ADME, organism-based, Macaca fascicularis; set-up: unit not given here; settings: in vivo
[38] = tested on: Caudate; experiment: Drug uptake in anesthetized cynomolgus monkey brain caudate after 27.5 mins postinjection; assay type: ADME, organism-based, Macaca fascicularis, Caudate nucleus; settings: in vivo
[39] = tested on: Midbrain; experiment: Drug uptake in anesthetized cynomolgus monkey brain midbrain after 145 mins postinjection; assay type: ADME, organism-based, Macaca fascicularis; settings: in vivo
[40] = tested on: Putamen; experiment: Drug uptake in anesthetized cynomolgus monkey brain putamen after 1.5 mins postinjection; assay type: ADME, organism-based, Macaca fascicularis; settings: in vivo, 0.025 h
[41] = Drug uptake in anesthetized cynomolgus monkey brain cerebellum after 0.5 mins postinjection; assay type: ADME, organism-based, Macaca fascicularis; settings: in vivo

O=C(OCC[18F])C1C2CCC(CC1c1cccc(/C=C\I)c1)N2 (stereo unspecified)
Drug uptake [1]: 2.86
Drug uptake [2]: 3.13
Drug uptake [3]: 4.36
Drug uptake [4]: 0.11
Ratio [5]: 0.9
Drug uptake [6]: 1.51
Drug uptake [7]: 3.01
Ratio [8]: 1.4
Drug uptake [9]: 3.16
Ratio [10]: 1.8
Drug uptake [11]: 2.65
Drug uptake [12]: 2.89
Ratio [13]: 1.2
Drug uptake [14]: 2.46
Ratio [15]: 1.1
Drug uptake [16]: 2.61
Drug uptake [17]: 2.36
Drug uptake [18]: 2.62
Drug uptake [19]: 1.97
Drug uptake [20]: 3.13
Ratio [21]: 1.4
Drug uptake [22]: 2.4
Drug uptake [23]: 1.2
Drug uptake [24]: 2.56
Ratio [25]: 1.6
Drug uptake [26]: 3.83
Drug uptake [27]: 3.43
Drug uptake [28]: 4.28
Drug uptake [29]: 1.28
Ratio [30]: 1
Drug uptake [31]: 0
Drug uptake [32]: 2.75
Drug uptake [33]: 3.78
Drug uptake [34]: 0.79
Drug uptake [35]: 3.71
Drug uptake [36]: 3.7
Drug uptake [37]: 4.26
Drug uptake [38]: 3.39
Drug uptake [39]: 3.85
Drug uptake [40]: 0.1
Drug uptake [41]: 0
